# Patent US8969325B2, “TRPV1 antagonists” (AbbVie Inc., priority 2011, dated 2015)
# Tests used:
# human TRPV1 [1] = target: T1, human TRPV1 (Homo sapiens (Human), UniProt Q8NER1); assay: Acid Activation Assay (pH 5.0, intracellular Ca2+, FLIPR); assay type: cell-based; details: percentage of the maximal pH 5.0-induced response remaining; recombinant HEK293 hTRPV1 cells; maximum concentration tested 37.5 μM
# In short: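 Readout: peak [Ca2+]i fluorescence over baseline on FLIPR, expressed as percentage remaining of the maximal pH 5.0-evoked signal. Stable hTRPV1-HEK293 cells with Calcium-4 dye received compound (12 half-log concentrations, maximum 37.5 μM) 3 min before acidic pH 5.0 buffer.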
# human TRPV1 [2] = target: T1, human TRPV1; assay: Capsaicin Activation Assay (intracellular Ca2+, FLIPR); assay type: cell-based; details: recombinant HEK293 cells expressing hTRPV1, 50 nM capsaicin
# In short: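 Ca2+ fluorescence was recorded by FLIPR every 1 to 5 seconds in HEK293 cells, clonally selected for stable human TRPV1 expression and plated one day ahead. Test compounds came as serial dilutions of 10 mM DMSO stocks.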
# T1 sequence (Q8NER1 whole entry): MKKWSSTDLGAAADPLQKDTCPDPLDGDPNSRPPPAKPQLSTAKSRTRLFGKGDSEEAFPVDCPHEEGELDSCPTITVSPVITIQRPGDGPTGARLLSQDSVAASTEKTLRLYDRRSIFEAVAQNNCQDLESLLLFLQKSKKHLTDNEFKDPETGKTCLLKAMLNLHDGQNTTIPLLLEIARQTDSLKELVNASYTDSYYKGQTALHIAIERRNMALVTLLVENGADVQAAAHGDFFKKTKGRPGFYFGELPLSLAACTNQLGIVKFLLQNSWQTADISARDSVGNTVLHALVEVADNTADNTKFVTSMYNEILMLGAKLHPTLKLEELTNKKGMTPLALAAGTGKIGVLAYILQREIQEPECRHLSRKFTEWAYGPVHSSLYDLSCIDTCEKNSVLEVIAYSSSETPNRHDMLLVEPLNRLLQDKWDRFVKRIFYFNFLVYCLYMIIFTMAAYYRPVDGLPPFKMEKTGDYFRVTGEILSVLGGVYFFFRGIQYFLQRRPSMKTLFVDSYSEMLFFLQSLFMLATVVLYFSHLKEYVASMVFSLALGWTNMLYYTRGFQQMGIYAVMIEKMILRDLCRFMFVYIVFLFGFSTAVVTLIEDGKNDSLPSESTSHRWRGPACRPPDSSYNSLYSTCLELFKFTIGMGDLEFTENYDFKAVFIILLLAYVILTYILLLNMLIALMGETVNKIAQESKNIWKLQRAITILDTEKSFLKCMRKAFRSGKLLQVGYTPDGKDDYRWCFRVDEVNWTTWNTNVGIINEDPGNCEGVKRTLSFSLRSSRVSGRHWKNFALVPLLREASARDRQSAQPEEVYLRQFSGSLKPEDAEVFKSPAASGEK
Compound,human TRPV1 H^+ (max % remain) (human TRPV1 [1]),IC50 (human TRPV1 [2])
"CN1Cc2ccc(NC(=O)N[C@@H]3CC(CF)(CF)Oc4cc(C(F)(F)F)ccc43)cc2NC1=O [Example 173, 1-[(4R)-2,2-bis(fluoromethyl)-7-(trifluoromethyl)-3,4-dihydro-2H-chromen-4-yl]-3-(3-methyl-2-oxo-1,2,3,4-tetrahydroquinazolin-7-yl)urea]",54%,100 nM
"O=C1COc2ccc(NC(=O)N[C@@H]3CC(CF)(CF)Oc4cc(Cl)ccc43)cc2N1 [Example 29, 1-[(4R)-7-chloro-2,2-bis(fluoromethyl)-3,4-dihydro-2H-chromen-4-yl]-3-(3-oxo-3,4-dihydro-2H-1,4-benzoxazin-6-yl)urea]",93%,100 nM
"CN1Cc2ccc(NC(=O)N[C@@H]3CC(C)(C)Oc4cc(F)ccc43)cc2NC1=O [Example 176, 1-[(4R)-7-fluoro-2,2-dimethyl-3,4-dihydro-2H-chromen-4-yl]-3-(3-methyl-2-oxo-1,2,3,4-tetrahydroquinazolin-7-yl)urea]",50%,120 nM
"CN1C(=O)CCc2ccc(NC(=O)N[C@@H]3CC(C)(C)Oc4c3ccc(F)c4Cl)cc21 [Example 275, 1-[(4R)-8-chloro-7-fluoro-2,2-dimethyl-3,4-dihydro-2H-chromen-4-yl]-3-(1-methyl-2-oxo-1,2,3,4-tetrahydroquinolin-7-yl)urea]",83%,920 nM
"CN1Cc2ccc(NC(=O)N[C@@H]3C[C@](C)(C(F)F)Oc4ccccc43)cc2NC1=O [Example 207, 1-[(2R,4R)-2-(difluoromethyl)-2-methyl-3,4-dihydro-2H-chromen-4-yl]-3-(3-methyl-2-oxo-1,2,3,4-tetrahydroquinazolin-7-yl)urea]",57%,330 nM
"CCCC1(CCC)C[C@@H](NC(=O)Nc2ccc3c(c2)NC(=O)N(C)C3)c2cc(F)ccc2O1 [Example 185, 1-[(4R)-6-fluoro-2,2-dipropyl-3,4-dihydro-2H-chromen-4-yl]-3-(3-methyl-2-oxo-1,2,3,4-tetrahydroquinazolin-7-yl)urea]",61%,210 nM
"CN1C(=O)CCc2ccc(NC(=O)N[C@@H]3CC(CF)(CF)Oc4c(F)cc(F)cc43)cc21 [Example 268, 1-[(4R)-6,8-difluoro-2,2-bis(fluoromethyl)-3,4-dihydro-2H-chromen-4-yl]-3-(1-methyl-2-oxo-1,2,3,4-tetrahydroquinolin-7-yl)urea]",66%,1200 nM
"CC1(C)C[C@H](NC(=O)Nc2ccc3c(c2)NC(=O)CC3)c2cc(F)ccc2O1 [Example 243, 1-[(4S)-6-fluoro-2,2-dimethyl-3,4-dihydro-2H-chromen-4-yl]-3-(2-oxo-1,2,3,4-tetrahydroquinolin-7-yl)urea]",45%,4900 nM
"CN1Cc2ccc(NC(=O)N[C@H]3CCOc4cc(OC(F)(F)F)ccc43)cc2NC1=O [Example 194, 1-(3-methyl-2-oxo-1,2,3,4-tetrahydroquinazolin-7-yl)-3-[(4S)-7-(trifluoromethoxy)-3,4-dihydro-2H-chromen-4-yl]urea]",52%,1800 nM
"CN1C(=O)NCc2c(NC(=O)N[C@@H]3CC(CF)(CF)Oc4ccccc43)cccc21 [Example 9, 1-[(4R)-2,2-bis(fluoromethyl)-3,4-dihydro-2H-chromen-4-yl]-3-(1-methyl-2-oxo-1,2,3,4-tetrahydroquinazolin-5-yl)urea]",30%,300 nM
"CN1C(=O)CCc2ccc(NC(=O)N[C@@H]3CC(CF)(CF)Oc4ccc(F)cc43)cc21 [Example 267, 1-[(4R)-6-fluoro-2,2-bis(fluoromethyl)-3,4-dihydro-2H-chromen-4-yl]-3-(1-methyl-2-oxo-1,2,3,4-tetrahydroquinolin-7-yl)urea]",63%,380 nM
"CCC1(CC)C[C@@H](NC(=O)Nc2ccc3c(c2)N(C)C(=O)CC3)c2ccc(Cl)c(Cl)c2O1 [Example 264, 1-[(4R)-7,8-dichloro-2,2-diethyl-3,4-dihydro-2H-chromen-4-yl]-3-(1-methyl-2-oxo-1,2,3,4-tetrahydroquinolin-7-yl)urea]",82%,170 nM
"CN1C(=O)NCc2c(NC(=O)N[C@@H]3C[C@@](C)(CF)Oc4ccccc43)cccc21 [Example 164, 1-[(2S,4R)-2-(fluoromethyl)-2-methyl-3,4-dihydro-2H-chromen-4-yl]-3-(1-methyl-2-oxo-1,2,3,4-tetrahydroquinazolin-5-yl)urea]",35%,120 nM
"CCC1(CC)C[C@@H](NC(=O)Nc2ccc3c(c2)NC(=O)N(C)C3)c2ccccc2O1 [Example 178, 1-[(4R)-2,2-diethyl-3,4-dihydro-2H-chromen-4-yl]-3-(3-methyl-2-oxo-1,2,3,4-tetrahydroquinazolin-7-yl)urea]",52%,72 nM
"CCC1(CC)C[C@@H](NC(=O)Nc2ccc3c(c2)NC(=O)N(CCO)C3)c2ccc(C(F)(F)F)cc2O1 [Example 46, 1-[(4R)-2,2-diethyl-7-(trifluoromethyl)-3,4-dihydro-2H-chromen-4-yl]-3-[3-(2-hydroxyethyl)-2-oxo-1,2,3,4-tetrahydroquinazolin-7-yl]urea]",0%,367 nM
"CCC1(CC)C[C@@H](NC(=O)Nc2ccc3c(c2)NC(=O)N(C)C3)c2ccc(C(F)(F)F)cc2O1 [Example 180, 1-[(4R)-2,2-diethyl-7-(trifluoromethyl)-3,4-dihydro-2H-chromen-4-yl]-3-(3-methyl-2-oxo-1,2,3,4-tetrahydroquinazolin-7-yl)urea]",12%,230 nM
"C[C@@]1(CF)C[C@@H](NC(=O)Nc2ccc3c(c2)NC(=O)N(CCO)C3)c2ccc(Cl)cc2O1 [Example 59, 1-[(2S,4R)-7-chloro-2-(fluoromethyl)-2-methyl-3,4-dihydro-2H-chromen-4-yl]-3-[3-(2-hydroxyethyl)-2-oxo-1,2,3,4-tetrahydroquinazolin-7-yl]urea]",2%,1500 nM

# The next compounds have a lower IC50 (human TRPV1 [2]) than those just listed; values first:
human TRPV1 H^+ (max % remain) (human TRPV1 [1]),IC50 (human TRPV1 [2]),Compound
29%,56 nM,"CC1(C)C[C@@H](NC(=O)Nc2ccc3c(c2)NC(=O)CC3)c2cccc(F)c2O1 [Example 219, 1-[(4R)-8-fluoro-2,2-dimethyl-3,4-dihydro-2H-chromen-4-yl]-3-(2-oxo-1,2,3,4-tetrahydroquinolin-7-yl)urea]"
27%,32 nM,"O=C1CCc2ccc(NC(=O)N[C@@H]3CCOc4cc(OC(F)(F)F)ccc43)cc2N1 [Example 236, 1-(2-oxo-1,2,3,4-tetrahydroquinolin-7-yl)-3-[(4R)-7-(trifluoromethoxy)-3,4-dihydro-2H-chromen-4-yl]urea]"
54%,25 nM,"Cn1c(=O)ccc2c(NC(=O)N[C@@H]3C[C@@](C)(C(F)F)Oc4ccccc43)cccc21 [Example 26, 1-[(2S,4R)-2-(difluoromethyl)-2-methyl-3,4-dihydro-2H-chromen-4-yl]-3-(1-methyl-2-oxo-1,2-dihydroquinolin-5-yl)urea]"
50%,24 nM,"CCCC1(CCC)C[C@@H](NC(=O)Nc2cccc3c2ccc(=O)n3C)c2cccc(F)c2O1 [Example 75, 1-[(4R)-8-fluoro-2,2-dipropyl-3,4-dihydro-2H-chromen-4-yl]-3-(1-methyl-2-oxo-1,2-dihydroquinolin-5-yl)urea]"
26%,17 nM,"Cn1c(=O)ccc2c(NC(=O)N[C@@H]3CCOc4c3cccc4C(F)(F)F)cccc21 [Example 97, 1-(1-methyl-2-oxo-1,2-dihydroquinolin-5-yl)-3-[(4R)-8-(trifluoromethyl)-3,4-dihydro-2H-chromen-4-yl]urea]"
50%,15 nM,"Cn1c(=O)ccc2c(NC(=O)N[C@@H]3CC(C)(C)Oc4cc(C(F)(F)F)ccc43)cccc21 [Example 91, 1-[(4R)-2,2-dimethyl-7-(trifluoromethyl)-3,4-dihydro-2H-chromen-4-yl]-3-(1-methyl-2-oxo-1,2-dihydroquinolin-5-yl)urea]"
20%,15 nM,"CN1C(=O)NCc2c(NC(=O)N[C@@H]3CC4(CCC4)Oc4ccc(F)cc43)cccc21 [Example 154, 1-[(4R)-6-fluoro-3,4-dihydrospiro[chromene-2,1′-cyclobutan]-4-yl]-3-(1-methyl-2-oxo-1,2,3,4-tetrahydroquinazolin-5-yl)urea]"
26%,14 nM,"Cn1c(=O)ccc2c(NC(=O)N[C@@H]3CCOc4cc(C(F)(F)F)ccc43)cccc21 [Example 64, 1-(1-methyl-2-oxo-1,2-dihydroquinolin-5-yl)-3-[(4R)-7-(trifluoromethyl)-3,4-dihydro-2H-chromen-4-yl]urea]"
5%,5 nM,"CN1Cc2c(NC(=O)N[C@@H]3CC(CF)(CF)Oc4cc(Cl)ccc43)cccc2N(C)C1=O [Example 167, 1-[(4R)-7-chloro-2,2-bis(fluoromethyl)-3,4-dihydro-2H-chromen-4-yl]-3-(1,3-dimethyl-2-oxo-1,2,3,4-tetrahydroquinazolin-5-yl)urea]"
10%,1 nM,"CN1C(=O)NCc2c(NC(=O)N[C@@H]3C[C@](C)(C(F)(F)F)Oc4ccccc43)cccc21 [Example 166, 1-(1-methyl-2-oxo-1,2,3,4-tetrahydroquinazolin-5-yl)-3-[(2R,4R)-2-methyl-2-(trifluoromethyl)-3,4-dihydro-2H-chromen-4-yl]urea]"
